Measured values from patent publication US20060128634A1, “Alpha, alpha-disubstituted benzylglycine derivatives as HIV protease inhibitors” (priority 2002, published 2006).
≈ marks a conversion by molar mass, not a printed value.

Test system: HIV-1 (RF)
Test: HIV RNA assay: microplate based compound evaluation in HIV-1 infected MT-2 cells
Format: cell-based
Conditions: Human immunodeficiency virus 1, MT2; HIV-1 (RF) infected MT-2 cells; value used to standardize the virus inoculum; read-out: IC90 (concentration of compound required to reduce the HIV RNA level by 90%)
Description: Plasmid pDAB 72 containing both gag and pol sequences of BH10 (bp 113-1816) cloned into PTZ 19R was prepared according to Erickson-Vitanen et al. AIDS Research and Human Retroviruses 1989, 5, 577. The plasmid was linearized with Bam HI prior to the generation of in vitro RNA transcripts using the Riboprobe Gemini system II kit (Promega) with T7 RNA polymerase. Synthesized RNA was purified by treatment with RNase free DNAse (Promega), phenol-chloroform extraction, and ethanol precipitation. RNA transcripts were dissolved in water, and stored at −70EC. The concentration of RNA was determined from the A260.
Biotinylated capture probes were purified by HPLC after synthesis on an Applied Biosystems (Foster city, Calif.) DNA synthesizer by addition of biotin to the 5N terminal end of the oligonucleotide, using the biotin-phosphoramidite reagent of Cocuzza, Tet. Lett. 1989, 30, 6287. […]
MT-2 and MT-4 cells were maintained in RPMI 1640 supplemented with 5% fetal calf serum (FCS) for MT-2 cells or 10% FCS for MT-4 cells, 2 mM L-glutamine and 50 μg/mL gentamycin, all from Gibco. […] Infectious titers of HIV-1(RF) stocks were 1-3×10^7 PFU (plaque forming units)/mL as measured by plaque assay on MT-2 cells (see below). […]

`Nc1ccn([C@H]2CC[C@@H](CO)O2)c(=O)n1` [ddC, dideoxycytidine] gave an IC90 of 0.2 µg/mL (≈ 0.947 µM).
